{
  "source": "paper PMC5656322",
  "about": "“BAK1 is involved in AtRALF1-induced inhibition of root cell expansion” (PLoS Genetics, 2017)",
  "key": {"[1]": {"tested_on": "Arabidopsis seedlings, primary root", "test": "Root growth inhibition assay, vertical plates", "assay_type": "in vivo, Arabidopsis thaliana", "experimental": "(A) and (B) Arabidopsis seedlings (2 days old) were treated with 10 μM AtRALF1 or water (H20) for 2 days. The values are the mean ± SD of at least 25 seedlings. Triple asterisks indicate P < 0.01 (Student’s t test); ns, not significant. (C) Four-day-old seedlings were transferred to media containing different concentrations of AtRALF1, and the primary root length was measured after 8 days of treatment. The data represent the mean value ± SD of 30 seedlings. […] Representative Arabidopsis seedlings after 8 days of treatment with AtRALF1 are shown below. Seedlings were arranged on plates after the treatment for imaging. Scale bars, 1 cm. (D) Two-day-old seedlings were treated with 10 μM AtRALF1 or water for 2 days, and root cell length was measured after 2 days of treatment. Cells from the root endodermis in the differentiation zone were measured. The values are the mean ± SD of approximately 150 cells. Triple asterisks indicate P < 0.01 (Student’s t test); ns, not significant.\nAliquots of 1 ml of medium containing seeds were distributed into 24-well plates. The peptides (10 μM) were added after 2 days, and the root length was measured 2 days after treatment. To maximize root growth, the seeds were germinated in vertical plates. […] The root length was measured 8 days after treatment unless stated otherwise. Control plants were grown under identical conditions in a peptide-free medium. Quantitative data were obtained as previously described. […] The data from one representative experiment are shown. For cell length measurements, AtRALF1 peptide (10 μM) was added after 2 days of germination, and the cell length was measured after 2 days of treatment. The cell wall was stained with a 1 mg ml^-1 propidium iodide solution (Sigma) in the dark for 15 min and washed twice with water. Cells of the endodermis of the root differentiation zone were imaged and measured using confocal microscopy (Olympus FV1000). Approximately 30 plants from each genetic background and at least 5 cells per root were measured. The wavelengths for excitation and emission were 555 and 655 nm, respectively. Image processing was completed using the Olympus FluoView software.\nSupplementary file pgen.1007053.s004.pdf: S4 Fig Analyses of root growth of Arabidopsis seedlings treated with AtRALF1 peptide for 8 days and evaluated daily. Four-day-old seedlings were transferred to media containing different concentrations of AtRALF1, and the primary root length was measured daily during the 8 days of treatment. Genotypes Wt, bak1-1, bak1-3 and bak1-4 are indicated on top of each series of graphics. The seedlings were treated with 0, 0.5, 1, 5 and 10 μM AtRALF1. The data represent the mean values ± SD of 30 seedlings. Double and triple asterisks indicate P < 0.05 and P <0.01, respectively (Student’s t test); ns, not significant. (PDF) Click here for additional data file.\nFour-day-old seedlings were transferred to medium containing 10 μM AtRALF1, and the primary root length was measured after 8 days of treatment. The data represent the mean value ± SD of 20 seedlings. Triple asterisks indicate P < 0.01 (Student’s t test); ns, not significant. Representative Arabidopsis seedlings after 8 days of treatment with AtRALF1 are shown. The seedlings were arranged on plates after the treatment for imaging. Scale bars, 1 cm. (PDF) Click here for additional data file.\nFour-day-old seedlings were transferred to medium containing 0.1 μM BAP, and the primary root length was measured after 8 days of treatment. The data represent the mean value ± SD of 10 seedlings."}, "[2]": {"test": "ITC of AtRALF1 into buffer", "assay_type": "physicochemical", "settings": "AtRALF1 0.7 mM injected in 15 mM HEPES, pH 6.8, 25°C (S15A Fig)", "experimental": "ITC was performed using a VP ITC with a 1.4 ml standard cell and a 293 μl titration syringe. Proteins were dissolved in ITC buffer (15 mM HEPES (4-(2-hydroxyethyl)-1-piperazineethanesulfonic acid, pH 6.8) and the experiments were performed at 25°C. Molar protein concentration for BAK1-ECD and AtRALF1 were calculated using their molecular weight of 25,654.04 and 7,631 Da, respectively (determined by HPLC). The concentrations for the complex titrations were 0.7 mM of protein (BAK1-ECD) in the syringe and 0.03 mM of ligand (AtRALF1) in the cell at time intervals of 300 s (28 injections of volume 10 μl) to ensure that the titration peak returned to the baseline.\nSupplementary file pgen.1007053.s015.pdf: S15 Fig Isothermal titration calorimetry (ITC) of AtRALF1 and BAK1-ECD. (A) AtRALF1 in 15mM HEPES, pH 6.8. ITC experiments were simulated using the following parameters: 28 injections of AtRALF1 (0.7 mM, volume 10 μL) in HEPES (volume cell = 1.4 mL) at 25°C. (B) BAK1-ECD in 15mM HEPES, pH 6.8. ITC experiments were simulated using the following parameters: 28 injections of BAK1-ECD (0.7 mM, volume 10 μL) in HEPES (volume cell = 1.4 mL) at 25°C. (C) HEPES in AtRALF1. ITC experiments were simulated using the following parameters: 28 injections of buffer 15mM HEPES, pH 6.8 (volume 10 μL) in AtRALF1 (0.03 mM, volume cell = 1.4 mL) at 25°C. (PDF) Click here for additional data file."}, "[3]": {"tested_on": "cytosolic Ca^2+ in Arabidopsis seedlings", "settings": "from extra- and intracellular stores; ref [1],[11]; cited from earlier work"}},
  "note": "“Also recorded” adds a separate entry of the source. Where no end group is shown, it is not given here.",
  "data": [
    {"substance": "AtRALF1: root-specific RALF isoform in Arabidopsis; recombinant peptide hormone produced in E. coli (ATTKYISYQSLKRNSVPCSRRGASYYNCQNGAQANPYSRGCSKIARCRS; ends and bridges not checked; cysteine pairing not given here)", "values": [
      {"measurement": "sensitivity of root growth", "setting": "[1]; 8 days of treatment, bak1-1, bak1-3, bak1-4 mutants", "value": "insensitive to the AtRALF1 peptide"},
      {"measurement": "daily root growth", "setting": "[1]; bak1-mutant lines, 8-day treatment, 0-10 μM", "value": "No differences were observed in the daily root growth"},
      {"measurement": "highest concentration to which bak1 mutants are insensitive", "setting": "[1]; bak1 mutants, 8 days", "value": "≥ 10", "unit": "µM"},
      {"measurement": "sensitivity of root growth", "setting": "[1]; bak1 mutants, side by side with fer4, 8 days", "value": "insensitive to any tested concentrations of the peptide"},
      {"measurement": "primary root growth inhibition", "setting": "[1]; bak7 mutant, 10 μM, 8 days", "value": "inhibited primary root growth"},
      {"measurement": "sensitivity of root growth", "setting": "[1]; fer4 mutant, side by side with bak1 mutants, 8 days", "value": "conditional insensitivity to AtRALF1 treatment; also recorded: insensitive to AtRALF1 peptide in low concentrations only"},
      {"measurement": "dose with significant differences in root growth by the third day of treatment", "setting": "[1]; wild-type, 0.5-10 μM tested, P < 0.05 / 0.01", "value": "≥ 1", "unit": "µM"},
      {"measurement": "heat of dissociation", "setting": "[2]", "value": "exhibits heat of dissociation"},
      {"measurement": "cytoplasmic Ca^2+", "setting": "[3]", "value": "rapid increase in cytoplasmic Ca^2+"}
    ]}
  ]
}
